In brackets after ≈: the same amount, converted by molar mass. Like-named read-outs stand apart in the source and are kept apart here.

The text below walks through data of PMC10208570, “Peptidomimetic antibiotics disrupt the lipopolysaccharide transport bridge of drug-resistant Enterobacteriaceae” (Science Advances, 2023).

Assay [1] concerns Klebsiella pneumoniae ATCC 43816 LptA L116Q mutant. Description: microbe, parasite or virus in culture. To be noted: Klebsiella pneumoniae, ATCC43816, read-out: MIC Klebsiella pneumoniae ATCC 43816 LptA L116Q (1x). The protocol:
(§1) MIC assays [Clinical and Laboratory Standards Institute (CLSI) methodology] and serial passage studies were performed as described by Luther et al. ([6]). […] Resistant mutants were isolated, and their MIC values were determined and sent to Microbes NG (Birmingham, United Kingdom) for whole-genome sequencing and bioinformatic analysis.

For assay [2], the system named is Escherichia coli ATCC 25922 LptA E84D mutant. Description: microbe, parasite or virus in culture. To be noted: Escherichia coli, ATCC25922, read-out: MIC Escherichia coli ATCC 25922 LptA E84D (1x). The protocol: as §1
Assay [3] concerns Klebsiella pneumoniae ATCC 43816 PglJ, PhnJ, ThiH mutant. As to the kind of experiment: microbe, parasite or virus in culture. The conditions noted are these: Klebsiella pneumoniae, ATCC43816, read-out: MIC Klebsiella pneumoniae ATCC 43816 PglJ, PhnJ, ThiH (1x). The protocol: as §1
The subject of assay [4] is Klebsiella pneumoniae ATCC 43816 LapB mutant. Description: microbe, parasite or virus in culture. To be noted: Klebsiella pneumoniae, ATCC43816, read-out: MIC Klebsiella pneumoniae ATCC 43816 LapB (1x). As to the method:
as §1

Assay [5] deals with K. pneumoniae ATCC 43816 LptA Q62L mutant. As to the kind of experiment: microbe, parasite or virus in culture. The conditions noted are these: Klebsiella pneumoniae, ATCC43816, read-out: MIC Klebsiella pneumoniae ATCC 43816 LptA Q62L (4x). The protocol:
as §1

The subject of assay [6] is Klebsiella pneumoniae NCTC 13443 YejM mutant. As to the kind of experiment: microbe, parasite or virus in culture. The conditions noted are these: Klebsiella pneumoniae, NCTC13443, read-out: MIC Klebsiella pneumoniae NCTC 13443 YejM (1x). As to the method:
as §1

Assay [7] deals with K. pneumoniae NCTC 13443 (NDM-1) (parent / WT). As to the kind of experiment: microbe, parasite or virus in culture. To be noted: Klebsiella pneumoniae. The protocol: as §1
The subject of assay [8] is K. pneumoniae ATCC 43816 (parent / WT). Description: microbe, parasite or virus in culture. The conditions noted are these: Klebsiella pneumoniae. As to the method: as §1
In assay [9] the test system is Escherichia coli ATCC 25922 KdsD mutant. Description: microbe, parasite or virus in culture. The conditions noted are these: Escherichia coli, ATCC25922, read-out: MIC Escherichia coli ATCC 25922 KdsD (2x). The protocol: as §1
The subject of assay [10] is K. pneumoniae NCTC 13443 (NDM-1) LptA Q62L mutant. As to the kind of experiment: microbe, parasite or virus in culture. To be noted: Klebsiella pneumoniae, NCTC13443, read-out: MIC Klebsiella pneumoniae NCTC 13443 LptA Q62L (5x). As to the method: as §1
In assay [11] the test system is Klebsiella pneumoniae ATCC 43816 LptA I36S mutant. As to the kind of experiment: microbe, parasite or virus in culture. To be noted: Klebsiella pneumoniae, ATCC43816, read-out: MIC Klebsiella pneumoniae ATCC 43816 LptA I36S (1x). As to the method: as §1
The subject of assay [12] is E. coli ATCC 25922 (parent / WT). As to the kind of experiment: microbe, parasite or virus in culture. The conditions noted are these: Escherichia coli. As to the method: as §1
Assay [13] concerns Klebsiella pneumoniae ATCC 43816 LptA I36N mutant. Description: microbe, parasite or virus in culture. The conditions noted are these: Klebsiella pneumoniae, ATCC43816, read-out: MIC Klebsiella pneumoniae ATCC 43816 LptA I36N (1x). As to the method:
as §1

In assay [14] the test system is E. coli ATCC 25922 LptA Q62L mutant. Description: microbe, parasite or virus in culture. The conditions noted are these: Escherichia coli. The protocol: as §1
The test system of assay [15] is Klebsiella pneumoniae NCTC 13443 LptA I36S mutant. Description: microbe, parasite or virus in culture. To be noted: Klebsiella pneumoniae, NCTC13443, read-out: MIC Klebsiella pneumoniae NCTC 13443 LptA I36S (2x). The protocol:
as §1

Assay [16] has as its system Klebsiella pneumoniae NCTC 13443 LpxC, LpxD mutant. As to the kind of experiment: microbe, parasite or virus in culture. To be noted: Klebsiella pneumoniae, NCTC13443, read-out: MIC Klebsiella pneumoniae NCTC 13443 LpxC, LpxD (1x). As to the method:
as §1

For assay [17], the system named is K. pneumoniae 968733 (CST-R). As to the kind of experiment: MIC assay (CLSI). The class given is cell-based, Klebsiella pneumoniae. To be noted: Klebsiella pneumoniae, read-out: MIC K. pneumoniae 968733 (CST-R) Parent. The protocol: as §1
The mark [18] stands for this setting: NCTC13443, read-out: MIC Klebsiella pneumoniae NCTC 13443 WT.
Setting [19] is: ATCC43816, read-out: MIC Klebsiella pneumoniae ATCC 43816 WT.
Setting [20] is: ATCC25922, read-out: MIC Escherichia coli ATCC 25922 WT.
[21] abbreviates: ATCC25922, read-out: MIC Escherichia coli ATCC 25922 LptA Q62L (7x).

On to `CO[C@@H]1[C@@H](OC(N)=O)[C@@H](O)[C@H](Oc2ccc3c(O)c(NC(=O)c4ccc(O)c(CC=C(C)C)c4)c(=O)oc3c2C)OC1(C)C` [Novobiocin], for which the MIC in assay [1] is over 64 µg/mL; in assay [2], over 64 µg/mL; in [3] it was 32 µg/mL (≈ 52.2 µM); in assay [4], 32 µg/mL (≈ 52.2 µM); in [5] it was over 64 µg/mL; in [6], over 64 µg/mL. The MIC was over 64 µg/mL in assay [7] (setting [18]); over 64 µg/mL in assay [8] (setting [19]); 64 µg/mL (≈ 104 µM) in [9]; over 64 µg/mL in assay [10]; over 64 µg/mL in assay [11]; over 64 µg/mL in [12] (setting [20]). Moreover, the MIC in assay [13] is over 64 µg/mL; in assay [14] (setting [21]) it was 64 µg/mL (≈ 104 µM); in assay [15] it was over 64 µg/mL; in assay [16] it was over 64 µg/mL.
Take `CN(C)c1cc(NC(=O)CNC(C)(C)C)c(O)c2c1C[C@H]1C[C@H]3[C@H](N(C)C)C(O)=C(C(N)=O)C(=O)[C@@]3(O)C(O)=C1C2=O` [Tigecycline, reference compound]: the MIC in assay [17] turned out to be 0.5 µg/mL (≈ 0.854 µM); in [7] (NCTC13443, read-out: MIC K. pneumoniae NCTC 13443 (NDM-1) Parent), 2 µg/mL (≈ 3.41 µM); in assay [8] (ATCC43816, read-out: MIC K. pneumoniae ATCC 43816 Parent) it was 0.5 µg/mL (≈ 0.854 µM); in [12] (ATCC25922, read-out: MIC E. coli ATCC 25922 Parent), 0.25 µg/mL (≈ 0.427 µM); in assay [14] (ATCC25922, read-out: MIC E. coli ATCC 25922 Q62L mutant), 0.25 µg/mL (≈ 0.427 µM).
Turning to `CN[C@H](CC(C)C)C(=O)N[C@H]1C(=O)N[C@@H](CC(N)=O)C(=O)N[C@H]2C(=O)N[C@H]3C(=O)N[C@H](C(=O)N[C@H](C(=O)O)c4cc(O)cc(O)c4-c4cc3ccc4O)[C@H](O)c3ccc(c(Cl)c3)Oc3cc2cc(c3O[C@@H]2O[C@H](CO)[C@@H](O)[C@H](O)[C@H]2O[C@H]2C[C@](C)(N)[C@H](O)[C@H](C)O2)Oc2ccc(cc2Cl)[C@H]1O` [Vancomycin], the MIC in [1], in assay [2], in assay [3], in assay [4], in [5] and in assay [6] was over 64 µg/mL throughout. Besides, the MIC in assay [7] (setting [18]), in [8] (setting [19]), in assay [9], in assay [10], in assay [11] and in assay [12] (setting [20]) was over 64 µg/mL throughout. For the same compound, the MIC in [13], in assay [14] (setting [21]), in assay [15] and in [16] was over 64 µg/mL in each case.
